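Five compound concentrations were applied to cells in 96-well plates for 48 hours; endpoints were derived by simple linear interpolation of the resulting dose-response curve. TGI is the concentration that stops growth completely.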 A value given as a limit tells only on which side of the number the result lay.

Holding throughout (experiment): growth of human tumour cells (NCI), 48 h
Experiment [1] relates to COLO 205 colon.
Experiment [2] relates to 786-0 renal.
The subject of experiment [3] is SK-OV-3 ovarian.
Experiment [4] has as its system MALME-3M melanoma.
Experiment [5] relates to OVCAR-4 ovarian.
For experiment [6], the system named is A549 NSCLC.
For experiment [7], the system named is U251 CNS.
The subject of experiment [8] is HOP-62 NSCLC.
The test system of experiment [9] is HL-60(TB) leukemia.
Experiment [10] relates to HCC-2998 colon.
In experiment [11] the test system is HT29 colon.
Experiment [12] deals with RPMI-8226 leukemia.
The test system of experiment [13] is UACC-257 melanoma.
For experiment [14], the system named is UO-31 renal.
Experiment [15] relates to HCT-116 colon.
Experiment [16] relates to EKVX NSCLC.
The test system of experiment [17] is SF-539 CNS.
The test system of experiment [18] is SNB-75 CNS.
Experiment [19] deals with MDA-MB-231 breast.
Experiment [20] has as its system DU-145 prostate.

As to `CCCCCCCCOCC(O)COC(C)C` (stereo not given), the TGI in [1], in [2], in experiment [3], in experiment [4], in experiment [5] and in [6] was > 100 µM in each case. In addition, the TGI in [7] was > 100 µM; in experiment [8], > 100 µM; in experiment [9], 31.7 µM; in [10], 58.3 µM; in experiment [11], > 100 µM; in experiment [12] it was 51.9 µM. Moreover, the results for the TGI in experiment [13], in experiment [14] and in [15] were 72.7 µM, > 100 µM and > 100 µM, respectively.
On to `O=C(C=C1SCCS1)/C=C\c1ccc(Cl)cc1`, for which the TGI in [1], in [16], in [2], in experiment [3], in experiment [4] and in experiment [5] was > 100 µM in each case. For the same compound, the TGI in experiment [6] was > 100 µM; in [8], > 100 µM; in experiment [9], > 100 µM; in experiment [10], 84.1 µM; in experiment [11], > 100 µM; in [12] it was > 100 µM. Moreover, the TGI in experiment [13], in experiment [17], in experiment [14], in [18] and in experiment [15] was > 100 µM each time.
In the case of `CC(=O)OC1CC2CCN3C(=O)c4cc5c(cc4[C@H](C1OC(C)=O)C23)OCO5` (stereo not given in full), the TGI in experiment [1], in experiment [16], in experiment [2], in experiment [3], in experiment [4] and in experiment [6] was > 100 µM throughout. For the same compound, the TGI in experiment [7], in [8], in [9], in experiment [10], in [11] and in experiment [12] was > 100 µM in each case. Besides, the TGI in [13], in experiment [17], in [14], in experiment [18] and in [15] was > 100 µM throughout.
Take `CCCC(=O)Nc1cc(/C=C/C(=O)N2CC(CCl)c3c2cc(OCc2ccccc2)c2[nH]cc(C)c32)n(C)c1` (stereo not given): the TGI in experiment [19] is > 25 µM; in experiment [1], 1.22 µM; in [16] it was 0.635 µM; in [2], 2.89 µM; in experiment [3], > 25 µM; in experiment [4] it was 0.353 µM. Also, the TGI in experiment [5] is 0.889 µM; in experiment [7] it was > 9.21 µM; in experiment [8] it was 0.453 µM; in experiment [9], 0.26 µM; in [11], 0.488 µM; in experiment [12], 1.3 µM. For the same compound, the TGI in [13] was 0.868 µM; in experiment [17] it was 0.165 µM; in experiment [14] it was 0.215 µM; in experiment [18], 0.381 µM; in [15], 0.225 µM.
Turning to `CC(=O)OCC(C)C1=C(OC(C)=O)C(=O)C2(C)C/C=C(/C)CC/C=C(\C)CCC(OC(C)=O)C(C)CCC12` (stereo not given), the TGI in [19] is 27.7 µM; in [1], 37.8 µM; in [2], 28.1 µM; in experiment [20], 36.7 µM; in [5], 82.3 µM; in experiment [7], 31.3 µM. Moreover, the TGI in [8] was determined as 27.5 µM; in experiment [9], 27.5 µM; in experiment [10], 31.2 µM; in [11], 33.5 µM; in experiment [12], 35.3 µM; in [13], 35.8 µM. Moreover, the TGI in experiment [17] was 38.7 µM; in experiment [14], 31.2 µM; in [18] it was > 100 µM; in [15] it was 36 µM.
Take `S=C(NNC1=NCCCCN1)Nc1ccc(Cl)cc1`: the TGI in experiment [19] is > 100 µM; in experiment [1], 34.5 µM; in experiment [16], > 100 µM; in experiment [2], > 100 µM; in [3] it was 93.1 µM; in [4], 55.7 µM. Besides, the TGI in experiment [5] is > 100 µM; in experiment [6], > 100 µM; in experiment [7], > 100 µM; in [8], 31.7 µM; in experiment [9], > 100 µM; in experiment [10], > 100 µM. The TGI in experiment [11] is > 100 µM; in [12], > 100 µM; in experiment [13], 43.9 µM; in [17], 76.5 µM; in experiment [14] it was 31.6 µM; in experiment [18] it was > 100 µM. Besides, the TGI in [15] is > 100 µM.
For the compound `O=C(O)CSC(CC1(c2ccc(Cl)cc2)NC(=O)CS1)c1ccc(Cl)cc1` (stereo not given), the TGI in [19], in experiment [1], in experiment [16], in experiment [2], in experiment [3] and in experiment [20] was > 100 µM each time. For the same compound, the TGI in experiment [5], in experiment [6], in experiment [7], in experiment [8], in experiment [9] and in experiment [11] was > 100 µM each time. The TGI in experiment [12], in experiment [13], in experiment [17], in experiment [14], in experiment [18] and in experiment [15] was > 100 µM in each case.
Turning to `CC(C)(C)OC(=O)N[C@H]1CC(O)c2ccccc2N(CC(=O)O)C1=O` (stereo not given in full), the TGI in [1], in experiment [16], in experiment [2], in [3], in experiment [4] and in [5] was > 100 µM each time. Further, the TGI in [6], in experiment [8], in [9], in experiment [10], in [11] and in experiment [13] was > 100 µM throughout. Also, the TGI in experiment [17], in experiment [14], in experiment [18] and in experiment [15] was > 100 µM throughout.
